One may read the % Inhibition as the change of the read-out against control, counted positive when it falls.

32 compounds from patent publication US7803559B1, “Protein aggregation regulators” (The Regents of the University of CA, priority 2003, dated 2010) can be followed below.

Counter-ions that a name gives are not always drawn.

The first test concerns ARN127(65)CFP/YFP. In words: Primary high-throughput AR FRET screen of three libraries. The format is cell-based, human. Particulars: compounds at 4 μg/ml, HEK293, ARN127(65)CFP/YFP + GRΔ, 100 nM dex, ~48 hours. As to the method:
(§1) Selected candidate compounds and/or libraries of compounds were screened as follows. Daughter plates were created in duplicate from the 384-well microtiter plates that contained the compounds at a concentration of 80 μg/ml. Compounds were aliquoted in 96-well plates (Costar™ 3603) at a concentration at which most of the compounds are active, but are not toxic to the cells (e.g., of 4 μg/ml). To screen a library, HEK293 cells stably expressing RFP were plated in 10 cm plates to obtain ˜80% confluency on the day of transfection. Each plate was transfected with 2 μg of ARN127(65)CFP/YFP each, and 0.7 μg p6RGRΔ using 50 μL Plus Reagent™ and 76 μL Lipofectamine™ according to manufacturer's protocol (Invitrogen). After 3 hours, complete medium was added and the plates were incubated further for 3 hours. […] The cells were then cultured for ˜48 hours to allow aggregate formation. After fixing the cells FRET signal was measured using a SAFIRE Fluorescence Plate Reader (Tecan, Inc.) according to methods described above. Several internal controls were used to standardize each experiment. Mock transfected cells were used to control for background autofluorescence and light scattering by mammalian cells. To control for CFP bleedthrough and crossover excitation of YFP, additional wells contained cells expressing ARN127(25)CFP or ARN127(25)YFP alone. RFP was measured to control for non-specific effects on steady-state protein levels. ARN127(25)CFP/YFP expression served as a reference point for background FRET levels without aggregation (a theoretical maximum effect on aggregation inhibition). FRET measurements for each experiment were thus scaled between 100% (cells with no drug treatment) and 0% (FRET levels from unexpanded protein). Last, each plate also contained wells treated with Y-27632 (50 μM) as a positive control.
as §1, with “Daughter” for “Selected candidate compounds and/or libraries of compounds were screened as follows. Daughter”, “a single concentration, e.g.,” for “a concentration of”, “concentration of 4 μg/ml,” for “concentration”, “the cells.” for “the cells (e.g., of 4 μg/ml).”, “screen the” for “screen a”
With “Cytosine beta-D-arabinofuranoside Hydrochloride”, the “% Inhibition” value is 81%. Same read-out and setting: as for `Cl.NC[C@@H]1O[C@H](C23CC4CC(CC(C4)C2)C3)Cc2c1ccc(O)c2O` [A-77636 hydrochloride], the figure is 64%; as for `NC(N)=NCCC[C@H](N)C(=O)C[C@@H](Cc1ccc(O)cc1)C(=O)O.NC(N)=NCCC[C@H](N)C(=O)C[C@@H](Cc1ccc(O)cc1)C(=O)O.O=S(=O)(O)O` [Arphamenine B Hemisulfate Salt: Hydrate], 69.7%; as for `CO[C@@H]1O[C@H](CO)[C@H](O)[C@H](O[C@@H]2O[C@H](CO)[C@@H](O)[C@H](O)[C@H]2NC(C)=O)[C@H]1O` [Methyl 3-O-(2-Acetamido-2-Deoxy-B-D-Glucopyranosyl)-B-D-Galactopyranoside], 70%. On to `Cn1cnc([N+](=O)[O-])c1Sc1ncnc2nc[nH]c12` [Azathioprine], for which the “% Inhibition” value is reported as 74.5%. Take `COC1=C2CC[C@@H]3[C@H](CC[C@]4(C)C(=O)CC[C@@H]34)[C@@]2(C)CCC1=O` [4-Androsten-4-ol-3,17-dione 4-methyl ether]: the “% Inhibition” value turned out to be 65.3%. Still for that read-out and setting: to `O=c1ncnc2n([C@H]3O[C@@H](CO)[C@H](O)[C@@H]3O)[nH]cc1-2` (stereo in doubt) [Allopurinol riboside] belongs 71.8%; to L-Canavanine Free Base, 73%. Turning to `Cc1nnc(SCC2=C(C(=O)O)N3C(=O)[C@@H](NC(=O)Cn4cnnn4)[C@H]3SC2)s1` [Cefazolin sodium], the “% Inhibition” value was found to be 70%.

For `Nc1nc2c(nc(Br)n2[C@@H]2O[C@@H]3COP(=O)([O-])O[C@H]3[C@H]2O)c(=O)[nH]1.[Na+]` [8-Bromoguanosine 3′,5′-cyclic monophosphate sodium salt], the “% Inhibition” value came to 71%. Same read-out and setting: as for `Nc1ccc(S(=O)(=O)Nc2ncccn2)cc1` [Sulfadiaine Free Acid], the figure is 80%; as for `Cc1ccc(S(=O)(=O)N[C@@H](CCC(N)=O)C(=O)OC(C)C)cc1` [N-(P-Tosyl)-L-Glutamine Isopropyl Ester], 80.6%.

In the case of `NCCCCCCNS(=O)(=O)c1cccc2ccccc12` [N-6-Aminohexyl-1-Naphthalenesulfonamide], the “% Inhibition” value was found to be 79.7%. On the same count and under the same terms, to `NCc1ccc(Cl)cc1Cl` [2,4-Dichlorobenzylamine] belongs 85%.

Another test relates to ARN127(65)CFP/YFP. In words: Secondary screen using the AR FRET assay. Format: cell-based, human.
Details: not given
As to the method: as §1, with “Compounds were aliquoted in 96-well plates (Costar™ 3603) at a concentration at which most of the compounds are active, but are not toxic to the cells (e.g., of 4 μg/ml).” left out, “protein).” for “protein). Last, each plate also contained wells treated with Y-27632 (50 μM) as a positive control.”
Selected candidate compounds from the primary screen of all three libraries were assayed again in a secondary screen using the AR FRET assay.
Finally, the role of F-actin in preventing polyglutamine aggregation was investigated by treating cells with two agents that prevent actin depolymerization: phalloidin and jasplakinolide.
Consider “(2-hydroxyethyl) trimethylammonium chloride carbamate [Carbachol]”, for which the “Max % Inhibition” value was found to be 20%.

The same test, now with this note: agents that prevent actin depolymerization, Table 5.
In the case of Phalloidin, the “Max % Inhibition” value amounted to 35%. Still for that read-out and setting: as for `C/C1=C\[C@H](C)C[C@H](C)OC(=O)C[C@H](c2ccc(O)cc2)NC(=O)[C@@H](Cc2c(Br)[nH]c3ccccc23)N(C)C(=O)[C@H](C)NC(=O)[C@@H](C)C1` [Jasplakinolide], the figure is 30%.

The same test, now with this note: secondary screen, AR FRET assay, Table 3.
Take `CNCCc1ccccn1.Cl.Cl` [Betahistine hydrochloride, N-methyl-N-(2-pyridin-2-ylethyl)amine dihydrochloride]: the “Max % Inhibition” value stood at 19%. The same measure, in the same setting: as for `CC(C)(C)NCC(O)COc1cccc2c1CC(O)C(O)C2` (centres unmarked) [Nadolol], the figure is 19%. The same measure, in the same setting: as for `CCOC(=O)Nc1c[n+](N2CCOCC2)no1` [Molsidomine, N-(Ethoxycarbonyl)-3-(4-morpholino)sydnone imine], the figure is 20%; as for `Cc1cc(-c2ccccc2)nnc1NCCN1CCOCC1` [Minaprine HCl, N-(4-Methyl-6-phenyl-3-pyridazinyl)-4-morpholineethanamin], 18%; as for `O=C(O)c1ccccc1OP(=O)(O)O` [Fosfosal, 2-phosphonooxybenzoic acid], 23%. On the same count and under the same terms, as for `COc1ccc([C@@H]2Sc3ccccc3N(CCN(C)C)C(=O)[C@@H]2OC(C)=O)cc1.Cl` (relative stereo) [Diltiazem HCl, (2S,3S)-(+)-cis-3-Acetoxy-5-(2-dimethylaminoethyl)-2,3-dihydro-2-(4-methoxyphenyl)-1,5-benzothiazepin-4(5H)-one hydrochloride], the figure is 22%; as for “N,N-bis(4-aminobutyl)amine [Spermidine HCl]”, 19%; as for `O=C1CC(c2ccc(O)cc2)Oc2cc(O)cc(O)c21` (racemic) [Naringenin, (±)-2,3-Dihydro-5,7-dihydroxy-2-(4-hydroxyphenyl)-4H-1-benzopyran-4-one], 19%.

Turning to `CC1=CC(=O)C2=C(C)CCC3[C@H](C)C(=O)O[C@@H]3[C@H]12` (stereo partly drawn) [Leucodin, (3S,9aR,9bS)-3,6,9-trimethyl-3,3a,4,5,9a,9b-hexahydroazuleno-[4,5-b]furan-2,7-dione], the “Max % Inhibition” value is recorded as 23%. Consider `NS(=O)(=O)c1cc2c(cc1Cl)N=CNS2(=O)=O` [Chlorothiazide, 6-Chloro-2H-1,2,4-benzothiadiazine-7-sulfonamide 1,1-dioxide], for which the “Max % Inhibition” value is on record as 19%. Same read-out and setting: to `COc1cc(C)c(C(=O)Oc2cc(C)c(C(=O)O)c(O)c2C)c(OC)c1C` [Diffractic acid, 4-[(2,4-dimethoxy-3,6-dimethylbenzoyl)-oxy]-2-hydroxy-3,6-dimethylbenzoic acid] belongs 20%; to `CCCCC/C=C\C/C=C\C/C=C\C/C=C\CCCC(=O)O` [Arachidonic acid, cis,cis,cis,cis-5,8,11,14-Eicosatetraenoic aci], 19%; to “DL-alanine,2,4-chlorophenyl-1,1-dimethylethyl ester [Alaproclate]”, 17%. Still for that read-out and setting: as for `COc1ccc2c(c1OC)C(=O)O[C@H]2[C@@H]1c2cc3c(cc2CCN1C)OCO3` [1S,9R-beta hydrastine, 1S,9R-(+)-beta hydrastine], the figure is 18%.

The target of the next test is T1, htt(72)CFP/YFP (Homo sapiens, UniProt P42858, INS38QQQQQQQQQQQQQQQQQQQQQQQQQQQQQQQQQQQQQQQQQQQQQQQQQQQ).
T1 construct: htt exon 1 fragment derived from plasmid qp72; expressed in transfected cells; host or cells: HEK293
T1 sequence (P42858 with tags, fused parts or gaps, stated change not applied): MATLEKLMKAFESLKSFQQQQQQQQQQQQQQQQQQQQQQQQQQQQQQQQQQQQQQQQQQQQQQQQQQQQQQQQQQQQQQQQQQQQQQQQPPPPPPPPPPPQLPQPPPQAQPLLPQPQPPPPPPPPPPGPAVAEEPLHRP
Nature of the test: FRET based assay of htt aggregation. Particulars: HEK293, htt(72)CFP/YFP, 24 hours. Format: cell-based. As to the method: Aggregation of htt was monitored using the FPR FRET based HTS described herein for assaying aggregation of AR, using plasmids with htt exon 1-CFP and -YFP fusions containing 72 repeats (htt(72)CFP/YFP). HEK293 cells were transfected with htt(72)CFP/YFP as above, and cells were plated into a 96-well dish in the presence or absence of various concentrations of test compounds. After 24 hours, cells were fixed in 4% paraformaldehyde, and FRET signal was determined from the cell monolayers by reading on the FPR.
With `COc1cc2ncnc(Nc3ccc(F)c(Cl)c3)c2cc1OCCCN1CCOCC1` [Iressa, (3-Chloro-4-fluoro-phenyl)-[7-methoxy-6-(3-morpholin-4-yl-propoxy)-quinazolin-4-yl]-amine], the “Max % Inh. in Htt” value stood at 20%.
